Experiment: Incorporation of 13C-labeled dicarboxylic acid anions in metabolic processes, determined by exhalation of 13CO2 in rats
Details: aqueous solution by pipette, amount equivalent to 1 mg of acid anion, air collected 12 hours after administration, 13C-labeled compounds
Description: The signal incorporation in metabolism was determined by exhalation of the labeled ^13C atom in the form of ^13CO2. The experiment was conducted as follows: aqueous solutions, in the amounts equivalent to 1 mg of the acids anions they contained, were administered to rats (groups of 8 individuals, each rat weighing 225-250 g) with a pipette: amber acid, sodium fumarate (fumaric acid is almost insoluble in water), aspartic acids, Ca(SucH)2, Mg(SucH)2.4H2O, Mg(AspH)2.4H2O, Zn(FumH)2.0.5H2O, Zn(FumH)2.H2O. The animals were then quickly placed in a hermetically sealed chamber. The air from the chamber was sampled in the same amount as it was pumped in the chamber. […] After that, the mass % of 13C administer was calculated in the exhaled air.

Compound	mass % of 13C administered found in the exhaled air (as 13CO2)
O.O.O.O.O=C([O-])CCC(=O)O.O=C([O-])CCC(=O)O.[Mg+2] [Mg(SucH)2.4H2O, Acidic Magnesium Succinate]	47.7%
O=C([O-])/C=C/C(=O)[O-].[Na+].[Na+] [sodium fumarate, reference compound]	97.8%
N[C@@H](CC(=O)[O-])C(=O)O.N[C@@H](CC(=O)[O-])C(=O)O.O.O.O.O.[Mg+2] [Mg(AspH)2.4H2O, Acidic Magnesium Aspartate]	47.4%
